Where “and” joins values, the source holds several entries; their conditions need not be identical. Equal entries are not always repeated. Structures can show the parent of a compound that is named as a salt.
What was measured:
[1] = serial passage by others; cited from earlier work
Huh7.5 cells [2] = assay: Infectivity of virus diluted in different media (FIG. 7); type: cell-based, Human; conditions: virus diluted in AEM prior to infection
Method: (A-C) Cells were incubated with virus mixes for 3 hours. After incubation, fresh DMEM+10% FBS was added to all wells. Cells were incubated for 48 hours before they were fixed, stained and the number of single HCV NS5A positive cells per well was determined by automated counting as described in Materials and Methods. Error bars represent SEM of triplicates. For (B), the mean infectivity (HCV NS5A positive cells/well) of triplicate wells of the reference culture (DMEM+10% FBS, black bar) was set to 100%. The number of HCV NS5A positive cells/experimental well was related to this mean to calculate % infectivity relative to the reference culture.

Huh7.5 cells [3] = assay: Supernatant infectivity titration (FFU assay) after transfection, infection or serial passage, Example 2; type: cell-based, Human; conditions: both kinetics experiments (MOIs of 0.003 and 0.0003)
Method: For transfection of Huh7.5 cells, 350,000 cells/well were seeded in 6-well plates (Nunc) and incubated for 24 hours. Plasmids (10 μg) were linearized by over-night digestion with XbaI (New England Biolabs). Linearized plasmids were purified using Wizard® SV Gel and PCR Clean-Up System (Promega). In vitro transcription was performed using T7 RNA polymerase (Promega) for 2 hours at 37° C. Transfection was performed by incubating 5 μL lipofectamine 2000 (Invitrogen) and the RNA transcripts in 500 μL serum-free Opti-MEM (Gibco/Invitrogen) for 20 minutes at room temperature. RNA-lipofectamine complexes were added to the pre-plated cells and incubated for 16-24 hours. Transfection efficiencies and culture spread were determined by HCV NS5A immunostaining (see below). […]
For infection of Huh7.5 cells in culture flasks, cells were seeded and incubated for 24 hours. When cells were evaluated to be ˜80% confluent, they were infected at a multiplicity of infection (MOI) of either 0.003 or 0.0003 for 3 hours (see Figure legends for details). […] Infection spread was monitored by HCV NS5A immunostaining (see below). […] For serum-free cultures, cells were infected in complete DMEM as described above and spread was monitored by NS5A immunostaining. […]
Culture supernatant infectivity titers were determined as Focus Forming Units (FFU)/mL. […]

[4] = test system: clathrin-mediated endocytosis; assay: Chlorpromazine inhibition of HCVcc and sf-HCVcc entry; type: cell-based, Human; conditions: genotype 1-6 HCVcc and sf-HCVcc, cells pre-treated, up to 10 μg/mL
Method: FIG. 11: Effect of chlorpromazine treatment on HCVcc and sf-HCVcc entry. (A-G) Chlorpromazine was diluted in DMEM+10% FBS to the concentrations indicated and then added to Huh7.5 cells, plated the previous day onto poly-D-lysine coated 96-well plates, and incubated for 30 minutes. HCVcc (black bars) were diluted in DMEM+10% FBS and sf-HCVcc (grey bars) were diluted in AEM+10% FBS and added to cultures. After 6 hours incubation, chlorpromazine-virus mixes were removed and DMEM+10% FBS was added. Cells were fixed 48 hours post infection and stained, and the number of single HCV NS5A positive cells per well was determined by automated counting as described in Materials and Methods. The HCV Core-E2 sequences of all virus stocks used were determined by direct sequencing. Sequences were identical for HCVcc and sf-HCVcc of the same recombinant. Compared to the plasmid sequence, H77(1a) viruses had acquired amino acid change I348S and J4(1b) had acquired amino acid change V710L, both estimated to be present in the majority of viral genomes. The % blocking was calculated by relating counts of experimental wells to the mean count of six replicate wells with untreated control virus. […] The % viability was calculated by relating absorbance at 490 nm determined for chlorpromazine treated cultures to the mean absorbance of three replicate untreated cultures. […]

Huh7.5 cells [5] = assay: Chlorpromazine cytotoxicity (cell viability assay); type: cell-based, Human; conditions: 6 hours treatment
Method: For determination of Huh7.5 cell viability in DMEM+10% FBS versus AEM, we plated 6,000 cells per well of poly-D-lysine coated 96-well plates in DMEM+10% FBS. The following day, medium was removed and cells were incubated in DMEM+10% FBS or AEM for 48 hours. Then, cell viability was determined using the CellTiter 96® AQueous One Solution Cell Proliferation Assay kit (Promega) according to the manufacturer's instructions. The % viability was calculated by relating absorbance at 490 nm determined for 10 AEM cultures to the mean absorbance of 10 replicate DMEM+10% FBS cultures. For determination of chlorpromazine cytotoxicity, chlorpromazine was diluted in DMEM+10% FBS as specified and then added to 6,000 Huh 7.5 cells/well, plated the previous day in poly-D-lysine coated 96-well plates. Cells were incubated for 6 hours before chlorpromazine was removed and DMEM+10% FBS was added. Cell viability was determined 6 and 48 hours post-treatment using the CellTiter 96® AQueous One Solution Cell Proliferation Assay kit. The % viability was calculated by relating absorbance at 490 nm determined for chlorpromazine treated cultures to the mean absorbance of at least three replicate untreated cultures.

J6/JFH1 [J6(2a)]
peak infectivity titers of adapted stocks [1]: 8 log 10 TCID50/mL and ~6.5 log 10 TCID50/mL
infectivity using AEM during the viral infection step (in words) (Huh7.5 cells [2]): infectivity was also reduced
peak infectivity titers (Huh7.5 cells [3]): 4.8 log 10 FFU/mL and 4.9 log 10 FFU/mL

CN(C)CCCN1c2ccccc2Sc2ccc(Cl)cc21 [chlorpromazine, chlorpromazine hydrochloride]
blocking rates [4]: up to 93%
highest concentration not resulting in cytotoxic effects (Huh7.5 cells [5]): 10 µg/mL
